{"source": "patent US11197859B2", "about": "(AUTIFONY THERAPEUTICS LIMITED, priority 2010, dated 2021)", "key": {"[1]": {"biological_target": "T1, human Kv3.2 channels (hKv3.2) (Homo sapiens, UniProt Q96PR1)", "T1 construct": "expressed in transfected cells", "T1 sequence (Q96PR1 1-638)": "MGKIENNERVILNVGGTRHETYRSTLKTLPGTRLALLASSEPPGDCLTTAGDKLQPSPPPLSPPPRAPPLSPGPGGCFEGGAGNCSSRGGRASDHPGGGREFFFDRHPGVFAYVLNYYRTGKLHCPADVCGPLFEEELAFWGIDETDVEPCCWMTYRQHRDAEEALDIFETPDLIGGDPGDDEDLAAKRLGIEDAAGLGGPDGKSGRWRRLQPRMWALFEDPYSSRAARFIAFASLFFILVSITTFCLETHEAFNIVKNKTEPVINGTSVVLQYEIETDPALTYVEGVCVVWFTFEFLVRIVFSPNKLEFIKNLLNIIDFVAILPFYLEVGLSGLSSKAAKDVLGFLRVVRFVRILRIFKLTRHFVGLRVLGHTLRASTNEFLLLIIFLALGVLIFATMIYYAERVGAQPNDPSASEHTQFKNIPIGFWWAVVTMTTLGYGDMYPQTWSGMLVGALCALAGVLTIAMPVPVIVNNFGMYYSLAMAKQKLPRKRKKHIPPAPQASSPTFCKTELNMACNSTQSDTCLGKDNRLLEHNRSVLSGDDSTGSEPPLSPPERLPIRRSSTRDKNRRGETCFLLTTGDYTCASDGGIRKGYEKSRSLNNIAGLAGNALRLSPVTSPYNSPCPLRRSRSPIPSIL", "assay": "IonWorks Quattro electrophysiology, hKv3.2 currents, activation time constant (Tauact)", "type": "cell-based", "conditions": "hKv3.2, -15 mV pulse", "procedure": "The ability of the compounds of the disclosure to modulate the voltage-gated potassium channel subtypes Kv3.2/3.1 may be determined using the following assay.\nTo assess compound effects on human Kv3.2 channels (hKv3.2), a stable cell line expressing hKv3.2 was created by transfecting Chinese Hamster Ovary (CHO)-K1 cells with a pCIH5-hKv3.2 vector. Cells were cultured in DMEM/F12 medium supplemented by 10% Foetal Bovine Serum, 1× non-essential amino acids (Invitrogen) and 500 ug/ml of Hygromycin-B (Invitrogen). Cells were grown and maintained at 37° C. in a humidified environment containing 5% CO2 in air.\nThe day of the experiment, cells were removed from the incubator and the culture medium removed. Cells were washed with 5 ml of Dulbecco's PBS (DPBS) calcium and magnesium free and detached by the addition of 3 ml Versene (Invitrogen, Italy) followed by a brief incubation at 37° C. for 5 minutes. The flask was tapped to dislodge cells and 10 ml of DPBS containing calcium and magnesium was added to prepare a cell suspension. The cell suspension was then placed into a 15 ml centrifuge tube and centrifuged for 2 min at 1200 rpm. After centrifugation, the supernatant was removed and the cell pellet re-suspended in 4 ml of DPBS containing calcium and magnesium using a 5 ml pipette to break up the pellet. Cell suspension volume was then corrected to give a cell concentration for the assay of approximately 3 million cells per ml.\nExperiments were conducted at room temperature using IonWorks Quattro™ planar array electrophysiology technology (Molecular Devices Corp.) with PatchPlate™ PPC. Stimulation protocols and data acquisition were carried out using a microcomputer (Dell Pentium 4). Planar electrode hole resistances(Rp) were determined by applying a 10 mV voltage step across each well. These measurements were performed before cell addition. […] Following this, amphotericin-B solution was added to the intracellular face of the electrode to achieve intracellular access. Cells were held at −70 mV. Leak subtraction was conducted in all experiments by applying 50 ms hyperpolarizing (10 mV) prepulses to evoke leak currents followed by a 20 ms period at the holding potential before test pulses. From the holding potential of −70 mV, a first test pulse to −15 mV was applied for 100 ms and following a further 100 ms at −70 mV, a second pulse to 40 mV was applied for 50 ms. Cells were then maintained for a further 100 ms at −100 mV and then a voltage ramp from −100 mV to 40 mV was applied over 200 ms. In all experiments, the test pulses protocol was performed in the absence (pre-read) and presence (post-read) of the test compound. Pre- and post-reads were separated by the compound addition followed by a 3 minute incubation.\nThe intracellular solution contained the following (in mM): K-gluconate 100, KCl 54, MgCl2 3.2, HEPES 5, adjusted to pH 7.3 with KOH. Amphotericin-B solution was prepared as 50 mg/ml stock solution in DMSO and diluted to a final working concentration of 0.1 mg/ml in intracellular solution.\nThe final assay dilution was 200 and the final compound concentrations were in the range 50 μM to 50 nM.\nThe recordings were analysed and filtered using both seal resistance (>20 MΩ) and peak current amplitude (>500 pA at the voltage step of 40 mV) in the absence of compound to eliminate unsuitable cells from further analysis. Kv3 channel-mediated outward currents were measured determined from the mean amplitude of the current over the final 10 ms of the −15 mV voltage pulse minus the mean baseline current at −70 mV over a 10 ms period just prior to the −15 mV step. This Kv3 channel currents following addition of the test compound were then compared with the currents recorded prior to compound addition. […] The normalised data were analysed using ActivityBase or Excel software."}, "[2]": {"system": "common marmosets (Callithrix jacchus)", "assay": "Pharmaco-electroencephalography (phEEG) in the common marmoset", "type": "in vivo", "procedure": "Laboratory bred male (vasectomised) and female common marmosets (Callithrix jacchus) over 2 years of age, weighing 250-500 g were used in this study. The animals were caged in couples, in a housing room maintained at 25±1° C., 60% humidity and a 12 hour light/dark cycle (lights on at 0600, with 30 min simulated dawn and twilight). Animals received a standard diet and drinking water ad libitum. Only one animal of each pair was involved in the test, which was carried out with the animal situated in the home cage.\nThe effect of compounds of the disclosure was assessed using telemetric recording of cortical EEG (ECoG). A multichannel telemetric transmitter (DSI model TL11M2-F40-EET) is implanted intraperitoneally using standard surgical techniques in anaesthetised marmosets. Recording electrodes were permanently fixed, with dental cement, to the skull directly in contact with the dura mater through two drilled holes in the fronto-parietal region. Following surgery, animals were housed in pairs (one implanted, one unoperated partner) in their home cage with access to food and water ad libitum. […] All in vivo studies were conducted in accordance with the Italian laws and conformed to GlaxoSmithkline ethical standards.\nThe animals were placed in the nest-boxes in their room cages and EEG traces were recorded using Dataquest ART software for a 5-min period for each time-point and analyzed using Spike2 software (CED, UK). The spectral power in each frequency band was determined for each 2 sec epoch during the pre-treatment period and averaged; similarly spectral power in each band was determined for successive 2 sec epochs of each 5-min period of recording following vehicle or drug treatment. Change in the absolute spectral power, for each of the different bands (delta, theta, alpha and beta) was calculated offline.\nDrug treatments were assigned according to a complete crossover design: All treatments were randomly distributed between animals, in separate experimental sessions, each animal received vehicle and each dose of drug, after an appropriate wash-out period.\nSix animals were treated orally with Reference Example RE2 at the doses of 0.3, 1 and 3 mg/kg (1 ml/kg) and the EEG traces were recorded at +15, 30, 60, 90, 120 and 180 minutes following treatment. Reference Example RE2 was suspended in 12.5% (w/v) aqueous captisol containing 0.1% (w/v) Tween80 and 0.5% (w/v) HPMC.\nFour different frequency bands were considered: delta (1.50-6.00 Hz), theta (6.00-8.00 Hz), alpha (8.00-12.00 Hz) and beta (12.00-30.00 Hz). Values for spectral power in each band at each time point were first log transformed and then analysed with a mixed effect model with time as fixed effect, the baseline level as covariate, and animal as random term. Data are summarised as mean of the percentage changes from baseline and standard error."}, "[3]": {"conditions": "compound 0.8 μM (concentration giving ~0.3 nA current)"}, "[4]": {"conditions": "compound 3.1 μM (concentration giving ~0.3 nA current)"}, "[5]": {"conditions": "compound 0.4 μM (concentration giving ~0.3 nA current)"}, "[6]": {"conditions": "compound 1.6 μM (concentration giving ~0.3 nA current)"}}, "data": [{"smiles": "CC[C@H]1NC(=O)N(c2ccc(Oc3ccc(C#N)c(C(C)C)c3)nc2)C1=O", "note": "[RE4, 4-({5-[(4R)-4-ethyl-2,5-dioxo-1-imidazolidinyl]-2-pyridinyl}oxy)-2-(1-methylethyl)benzonitrile]", "values": [{"measurement": "Tauact mean", "setting": "[1]; [3]", "result": 9.2, "unit": "ms"}]}, {"smiles": "CCc1cc(Oc2ccc(N3C(=O)N[C@H](CC)C3=O)cn2)ccc1C#N", "values": [{"measurement": "Tauact mean", "setting": "[1]; [4]", "result": 8.2, "unit": "ms"}]}, {"smiles": "CC[C@H]1NC(=O)N(c2ccc(Oc3ccc(C)c4c3C(C)(C)CO4)nc2)C1=O", "note": "[Example 63, (5R)-5-ethyl-3-{6-[(3,3,7-trimethyl-2,3-dihydro-1-benzofuran-4-yl)oxy]-3-pyridinyl}-2,4-imidazolidinedione]", "values": [{"measurement": "Tauact mean", "setting": "[1]; [5]", "result": 28.0, "unit": "ms"}]}, {"smiles": "CC[C@H]1NC(=O)N(c2ccc(Oc3ccc(C)c4c3C3(CC3)CO4)nc2)C1=O", "note": "[Example 62, (5R)-5-ethyl-3-[6-(7-methylspiro[2H-benzofuran-3,1′-cyclopropane]-4-yl)oxy-3-pyridyl]imidazolidine-2,4-dione]", "values": [{"measurement": "Tauact mean", "setting": "[1]; [5]", "result": 34.8, "unit": "ms"}]}, {"smiles": "CC1COc2cccc(Oc3ccc(N4C(=O)NC(C)(C)C4=O)cn3)c2C1", "note": "(single isomer, unassigned) [Example 25, 5,5-dimethyl-3-{6-[(3-methyl-3,4-dihydro-2H-chromen-5-yl)oxy]-3-pyridinyl}-2,4-imidazolidinedione]", "values": [{"measurement": "Tauact mean", "setting": "[1]; compound 6.25 μM (concentration giving ~0.3 nA current)", "result": 7.87, "unit": "ms"}]}, {"smiles": "CC1(C)NC(=O)N(c2ccc(Oc3cccc4c3C3(CC3)CO4)nc2)C1=O", "note": "[Example 16, 5,5-dimethyl-3-[6-(spiro[1-benzofuran-3,1′-cyclopropan]-4-yloxy)-3-pyridinyl]-2,4-imidazolidinedione]", "values": [{"measurement": "Tauact mean", "setting": "[1]; [5]", "result": 19.3, "unit": "ms"}]}, {"smiles": "CC[C@H]1NC(=O)N(c2ccc(Oc3ccc(C#N)c(OC(C)C)c3)nc2)C1=O", "note": "[RE8, 4-({5-[(4R)-4-ethyl-2,5-dioxo-1-imidazolidinyl]-2-pyridinyl}oxy)-2-[(1-methylethyl)oxy]benzonitrile]", "values": [{"measurement": "Tauact mean", "setting": "[1]; [4]", "result": 9.7, "unit": "ms"}]}, {"smiles": "CC[C@H]1NC(=O)N(c2ccc(Oc3ccc(C#N)cc3C(C)(C)C)nc2)C1=O", "note": "[RE3, 3-(1,1-dimethylethyl)-4-({5-[(4R)-4-ethyl-2,5-dioxo-1-imidazolidinyl]-2-pyridinyl}oxy)benzonitrile]", "values": [{"measurement": "Tauact mean", "setting": "[1]; compound 0.2 μM (concentration giving ~0.3 nA current)", "result": 23.0, "unit": "ms"}]}, {"smiles": "CC[C@H]1NC(=O)N(c2cnc(Oc3ccc(C)c4c3C3(CC3)CO4)nc2)C1=O", "note": "[Example 61, (5R)-5-ethyl-3-[2-(7-methylspiro[2H-benzofuran-3,1′-cyclopropane]-4-yl)oxypyrimidin-5-yl]imidazolidine-2,4-dione]", "values": [{"measurement": "Tauact mean", "setting": "[1]; [3]", "result": 31.5, "unit": "ms"}]}, {"smiles": "CC[C@@]1(C)NC(=O)N(c2cnc(Oc3ccc(C)c4c3C3(CC3)CO4)nc2)C1=O", "note": "[Example 51, (5R)-5-ethyl-5-methyl-3-[2-(7-methylspiro[2H-benzofuran-3,1′-cyclopropane]-4-yl)oxypyrimidin-5-yl]imidazolidine-2,4-dione]", "values": [{"measurement": "Tauact mean", "setting": "[1]; [6]", "result": 21.3, "unit": "ms"}]}, {"smiles": "CC[C@@]1(C)NC(=O)N(c2ccc(Oc3ccc(C)c(OC)c3)nc2)C1=O", "note": "[RE2, (5R)-5-ethyl-5-methyl-3-(6-{[4-methyl-3-(methyloxy)phenyl]oxy}-3-pyridinyl)-2,4-imidazolidinedione]", "values": [{"measurement": "Tauact mean", "setting": "[1]; compound 12.5 μM (concentration giving ~0.3 nA current)", "result": 7.3, "unit": "ms"}, {"measurement": "absolute EEG power in the beta band", "setting": "[2]; 1 mg/kg oral, at 30 minutes (concomitant), vs vehicle, p<0.05", "result": "significant reduction"}, {"measurement": "absolute EEG power in delta band", "setting": "[2]; 1 mg/kg oral, at 30 minutes, vs vehicle, p<0.10", "result": "marginally significant (p<0.10) increase"}, {"measurement": "EEG theta band power", "setting": "[2]; 3 mg/kg oral, at 60 minutes, vs vehicle, p<0.05", "result": "statistically significant increase"}, {"measurement": "absolute EEG power in the delta band", "setting": "[2]; 3 mg/kg oral, between 30 and 120 minutes, vs vehicle, p<0.05", "result": "statistically significant increase"}, {"measurement": "EEG power in the alpha band", "setting": "[2]; any dose (0.3, 1, 3 mg/kg oral)", "result": "No significant effects"}]}, {"smiles": "CC[C@H]1NC(=O)N(c2ccc(Oc3ccc(C#N)c(OC(F)(F)F)c3)nc2)C1=O", "note": "[RE7, 4-({5-[(4R)-4-ethyl-2,5-dioxo-1-imidazolidinyl]-2-pyridinyl}oxy)-2-[(trifluoromethyl)oxy]benzonitrile]", "values": [{"measurement": "Tauact mean", "setting": "[1]; [4]", "result": 10.4, "unit": "ms"}]}, {"smiles": "CC[C@H]1NC(=O)N(c2ccc(Oc3ccc(C#N)cc3C3CC3)nc2)C1=O", "note": "[RE5, 3-cyclopropyl-4-({5-[(4R)-4-ethyl-2,5-dioxo-1-imidazolidinyl]-2-pyridinyl}oxy)benzonitrile]", "values": [{"measurement": "Tauact mean", "setting": "[1]; [4]", "result": 13.0, "unit": "ms"}]}, {"smiles": "CC[C@H]1NC(=O)N(c2cnc(Oc3ccc(C)c4c3C(C)(C)CO4)nc2)C1=O", "note": "[Example 64, (5R)-5-ethyl-3-{2-[(3,3,7-trimethyl-2,3-dihydro-1-benzofuran-4-yl)oxy]-5-pyrimidinyl}-2,4-imidazolidinedione]", "values": [{"measurement": "Tauact mean", "setting": "[1]; [6]", "result": 25.0, "unit": "ms"}]}, {"smiles": "CC[C@@]1(C)NC(=O)N(c2ccc(Oc3ccc(C)c4c3C3(CC3)CO4)nc2)C1=O", "note": "[Example 65, (5R)-5-ethyl-5-methyl-3-[6-(7-methylspiro[2H-benzofuran-3,1′-cyclopropane]-4-yl)oxy-3-pyridyl]imidazolidine-2,4-dione]", "values": [{"measurement": "Tauact mean", "setting": "[1]; [3]", "result": 24.0, "unit": "ms"}]}]}
